According to ChEMBL document CHEMBL3120130, “Benzenesulfonamide bearing 1,2,4-triazole scaffolds as potent inhibitors of tumor associated carbonic anhydrase isoforms hCA IX and hCA XII” (Bioorg Med Chem, 2014):

Key:
[1] = molecular target: Carbonic anhydrase 9 (Homo sapiens, UniProt Q16790); assay: Inhibition of human transmembrane carbonic anhydrase 9 by stopped flow CO2 hydration assay
[2] = molecular target: Carbonic anhydrase 1 (Homo sapiens, UniProt P00915); assay: Inhibition of human cytosolic carbonic anhydrase 1 by stopped flow CO2 hydration assay
Chain of Carbonic anhydrase 1 (P00915 whole entry): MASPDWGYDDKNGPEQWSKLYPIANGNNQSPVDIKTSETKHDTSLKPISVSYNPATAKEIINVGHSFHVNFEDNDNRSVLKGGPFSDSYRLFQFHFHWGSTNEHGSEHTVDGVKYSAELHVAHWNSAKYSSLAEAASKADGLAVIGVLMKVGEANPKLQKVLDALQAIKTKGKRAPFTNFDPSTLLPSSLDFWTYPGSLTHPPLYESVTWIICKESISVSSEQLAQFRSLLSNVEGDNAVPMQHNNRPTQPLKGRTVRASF

Row | Ki [1] [nM] | Ki [2] [nM] | SMILES
1 | 3.7 | – | NS(=O)(=O)c1ccc(-c2nnc3n2N=C(c2ccc(Br)cc2)CS3)cc1
2 | 64 | > 10000 | NS(=O)(=O)c1ccc(-c2nnc3sc(-c4ccc(F)cc4)nn23)cc1
3 | 115 | – | NS(=O)(=O)c1ccc(-c2nnc3n2N=C(c2ccc([N+](=O)[O-])cc2)CS3)cc1
4 | 104 | – | NS(=O)(=O)c1ccc(-c2nnc3sc(-c4ccc(Br)cc4)nn23)cc1
5 | 114 | – | NS(=O)(=O)c1ccc(-c2nnc3sc(-c4ccccc4)nn23)cc1
6 | 21 | – | NS(=O)(=O)c1ccc(-c2nnc3n2N=C(c2ccccc2)CS3)cc1
7 | 76 | – | NS(=O)(=O)c1ccc(-c2nnc3n2N=C(c2ccc(Cl)cc2)CS3)cc1

Further lines, the molecule ahead of its results:

Row | SMILES | Ki [1] [nM] | Ki [2] [nM]
8 | Cc1ccc(-c2nn3c(-c4ccc(S(N)(=O)=O)cc4)nnc3s2)cc1 | 356 | > 10000
9 | NS(=O)(=O)c1ccc(-c2nnc3sc(-c4ccc(Cl)cc4)nn23)cc1 | 89 | –
10 | NS(=O)(=O)c1ccc(-n2c(-c3ccc(Br)cc3)n[nH]c2=S)cc1 | 7.6 | –
11 | NS(=O)(=O)c1ccc(-n2c(-c3ccc(F)cc3)n[nH]c2=S)cc1 | 2.8 | –
12 | Cc1ccc(-c2n[nH]c(=S)n2-c2ccc(S(N)(=O)=O)cc2)cc1 | 16 | –
13 | NS(=O)(=O)c1ccc(-c2n[nH]c(=S)n2-c2ccc(S(N)(=O)=O)cc2)cc1 | 9 | –
14 | Cc1ccc(C2=Nn3c(nnc3-c3ccc(S(N)(=O)=O)cc3)SC2)cc1 | 13 | –
15 | NS(=O)(=O)c1ccc(-c2nnc3n2N=C(c2ccc(F)cc2)CS3)cc1 | 25 | –
16 | COc1ccc(-c2nn3c(-c4ccc(S(N)(=O)=O)cc4)nnc3s2)cc1 | 431 | > 10000
17 | NS(=O)(=O)c1ccc(-n2c(-c3ccc(Cl)cc3)n[nH]c2=S)cc1 | 5.7 | –
18 | NS(=O)(=O)c1ccc(-c2nnc3sc(-c4ccc([N+](=O)[O-])cc4)nn23)cc1 | 41 | > 10000
